Data on two compounds can be found in patent publication US20220072013A1, “Pharmaceutical Combinations for the Treatment of Cancer” (CA*TX, Inc., priority 2018, published 2022).

Assay [1] relates to intestinal tumors in Apc^Min/+ mice. The assay is described as follows: Intestinal tumor development in Apc^Min/+ mice given drug-containing diets. The assay is classed as in vivo. As to conditions: for decrease in tumor number: analyzed at 12 weeks; for change in tumor size: started before adenoma development (age 4 to 12 weeks). The procedure:
FIG. 1 illustrates the decrease in the number of intestinal tumors in Apc^Min/+ mice given Budesonide- or Sulindac-containing diets for 8 or 4 weeks (from age 4 weeks to age 12 weeks or age 8 weeks to age 12 weeks); bars show % change in tumor number compared to untreated C57BL/6 control mice.
FIG. 2 illustrates the change in size of intestinal tumors in Apc^Min/+ mice that were administered Budesonide- or Sulindac containing diets for 8 or 4 weeks (from age 4 weeks to age 12 weeks or age 8 weeks to age 12 weeks); bars show % change in tumor size compared to untreated C57BL/6 control mice.
Budesonide, a steroidal anti-inflammatory drug active against lung cancer development, was investigated as a drug for CRC. Budesonide was evaluated using the murine model for hereditary CRC (FAP) in humans—Apc^Min/+ mice—which, like FAP patients, carry a germline Apc mutation and which spontaneously develop multiple intestinal tumors. The effects of Budesonide were compared to Sulindac as the “gold standard” for an NSAID drug known to inhibit tumor development in Apc^Min mice. The Apc^Min/+ and control mice (C57BL6) were given Budesonide- or Sulindac-containing diets starting at 4 or 8 weeks of age (corresponding, respectively, to ages before and after intestinal tumor development). At 12 weeks, mice were sacrificed and intestines analyzed for adenomas. […] Without wishing to be bound by any particular theory, it is concluded that Budesonide has strong activity against the development of multiple tumors that would otherwise be induced by a variety of Apc mutations (combinations of inherited 1st hit and acquired 2nd hits), and also regression of many tumors after they had already developed.

The test system of assay [2] is global DNA methylation of adenomas in Apc^Min/+ mice. The assay is described as follows: Anti-5-methylcytidine immunostaining of small intestine adenomas (global DNA methylation). The assay is classed as in vivo.
The next assay concerns HT29 (APC mutant) cells. Nature of the assay: DNA methylation (epigenetic) profiling of HT29 cells. The assay is classed as cell-based, human. The procedure:
FIG. 5 illustrates that Budesonide increases DNA methylation in human CRC cells. To determine if Budesonide increases DNA methylation in human CRC cells, epigenetic profiling was done on HT29 (APC mutant) cells in response to Budesonide exposure. […] A statistically significant shift in CpG methylation occurred at 235 unique CpG sites (out of 1.9 M that were analyzed).

The test system of another assay is survivin. Nature of the assay: Survivin mRNA and protein expression in HT-29 cells (RT-PCR, western blot). Conditions: Sulindac 200 μM. The assay is classed as cell-based, human. On the procedure: RNA and protein expression were measured by RT-PCR and western blot, respectively. FIGS. 3A and 3B show an ethidium bromide-stained gel and graph of quantified data for survivin and Bcl-2 mRNA expression. FIGS. 3C and 3D show a western blot and graph of quantified data for survivin and Bcl-2 protein expression.
Another mechanism attributed to Sulindac's antitumor effects is its ability to induce apoptosis and decrease cell proliferation. This mechanism appears to involve a COX-independent mechanism whereby Sulindac (and other NSAIDs) induce degradation of beta-catenin, inactivation of Tcf-4, reduced expression of an anti-apoptotic protein (survivin; FIG. 3) and increased apoptosis in human CRC cells. […] To that end, survivin and Bcl-2 expression was evaluated in HT-29 cells that were treated with Sulindac (200 μM). RNA and protein expression were measured by RT-PCR and western blot, respectively. FIGS. 3A and 3B show an ethidium bromide-stained gel and graph of quantified data for survivin and Bcl-2 mRNA expression.
A general note: Immunoblotting shows a protein as a band on a membrane.

The test system of another assay is HT29 CRC cells. The assay is described as follows: Apoptosis in HT29 CRC cells. In kind it is cell-based, human.
Setting [3] is: diet started at 4 weeks of age, prior to establishment of intestinal adenomas.
[4] abbreviates: diet started at 8 weeks of age, after adenoma development.

Entries after “also recorded” stand apart in the source; their conditions may differ.

With `CCCC1O[C@@H]2C[C@H]3[C@@H]4CCC5=CC(=O)C=C[C@]5(C)[C@H]4[C@@H](O)C[C@]3(C)[C@]2(C(=O)CO)O1` (stereo partly drawn) [Budesonide, budesonide], the “decrease in tumor number” value in assay [1] (setting [3]) stood at 88%. In addition, the “decrease in tumor number” value in assay [1] (setting [4]) came to 60%. The “change in tumor size” value in assay [1] was “decreased”. Further, in assay [2], the “5-methylcytidine immunostaining signal intensity, increase” value was determined as 1.9 fold and the “proportion of cells staining positive for 5-methylcytidine” value is “increase”. Moreover, in the assay on HT29 (APC mutant) cells (Budesonide exposure), the “1 MB domains across the genome showing an increase in methylation versus control” value is listed as 69.3%. For the same compound, in the assay with HT29 (APC mutant) cells (out of 1.9 M sites analyzed), the “unique CpG sites with statistically significant shift in CpG methylation” value was determined as 235.

With `CC1=C(CC(=O)O)c2cc(F)ccc2/C1=C\c1ccc([S+](C)[O-])cc1` (stereo not drawn) [Sulindac], the “decrease in tumor number” value in assay [1] (setting [3]) and in assay [1] (setting [4]) was 90% each time. In assay [1], the “change in tumor size” value is on record as “decreased”. In addition, the survivin expression entry with survivin is recorded as “monotonic decrease; also recorded: attenuates expression”. In addition, the apoptosis entry in the assay on HT29 CRC cells is “induces apoptosis”.
